In one assay the target is T1, hMGL (Homo sapiens, UniProt Q99685).
T1 construct: A full-length cDNA clone of the human MGL transcript variant 1; made in house; host or cells: E. coli BL21 (DE3)
T1 sequence (Q99685 2-303 limits assumed): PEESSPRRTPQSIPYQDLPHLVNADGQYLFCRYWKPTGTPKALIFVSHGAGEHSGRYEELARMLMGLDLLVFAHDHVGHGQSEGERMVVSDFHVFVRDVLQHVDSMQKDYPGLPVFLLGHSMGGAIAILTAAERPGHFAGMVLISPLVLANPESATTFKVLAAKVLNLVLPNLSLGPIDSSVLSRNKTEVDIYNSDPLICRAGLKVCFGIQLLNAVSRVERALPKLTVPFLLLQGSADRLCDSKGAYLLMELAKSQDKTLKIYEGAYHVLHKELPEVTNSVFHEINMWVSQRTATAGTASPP
Description: Fluorescent enzyme assay, MGL (AHMMCE hydrolysis). The assay is classed as biochemical. The note with it: for inhibition at 0.01 µM: read-out: % Inhibition of Enzyme by inhibitor, MGL, 10 nM; for inhibition at 1 µM: 1000 nM inhibitor. An outline of the steps:
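Recombinant N-terminal His6-tagged human MGL (transcript variant 1) expressed in E. coli BL21(DE3), purified by metal-affinity chromatography. Inhibition measured as reduction in rate of AHMMCE hydrolysis; % inhibition from three inhibitor concentrations, IC50/Ki from eight-point curves.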

The next assay concerns the target T2, ΔTM rFAAH (Rattus norvegicus, UniProt P97612).
T2 construct: 15 ug of ΔTM rFAAH (cell lysate obtained by recombinant procedure); made in house
T2 sequence (P97612 30-579 limits assumed): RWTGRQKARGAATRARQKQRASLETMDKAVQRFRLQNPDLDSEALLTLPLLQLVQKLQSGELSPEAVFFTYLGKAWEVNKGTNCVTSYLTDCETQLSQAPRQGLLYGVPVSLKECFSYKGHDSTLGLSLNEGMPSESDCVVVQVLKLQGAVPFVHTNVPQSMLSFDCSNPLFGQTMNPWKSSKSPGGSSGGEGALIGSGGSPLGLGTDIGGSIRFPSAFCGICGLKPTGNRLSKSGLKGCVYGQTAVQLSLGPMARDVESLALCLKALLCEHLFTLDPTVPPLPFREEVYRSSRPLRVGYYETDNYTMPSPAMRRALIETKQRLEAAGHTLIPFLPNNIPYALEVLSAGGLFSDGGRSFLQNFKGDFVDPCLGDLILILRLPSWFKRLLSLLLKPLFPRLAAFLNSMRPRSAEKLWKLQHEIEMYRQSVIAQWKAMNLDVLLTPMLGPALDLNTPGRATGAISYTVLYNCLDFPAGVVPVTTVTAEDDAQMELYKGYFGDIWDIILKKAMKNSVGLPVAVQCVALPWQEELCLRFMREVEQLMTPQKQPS
Description: Fluorescent enzyme assay, FAAH (AAMCA hydrolysis). The assay is classed as biochemical. The settings on record: AAMCA substrate, screening assay; for inhibition at 0.01 µM: 10 nM inhibitor; for inhibition at 1 µM: 1000 nM inhibitor.

Assay [1] has as its system rats (KA-induced seizures). As to the kind of experiment: KA-induced seizures in rats, seizure scoring for 4 h. The class given is in vivo. The settings on record: 5 mg/kg injected immediately after 10 mg/kg KA; 4-h rating period. The procedure:
These compounds were tested in vivo. Seizures were initiated in rats by injection with 10 mg/kg of KA (insult).

Where [2] appears, read: AHMMCE substrate, screening assay.

Where two headings read alike, the source gives them in different places.

What is called inhibition is the percentage by which the read-out fell short of the control. Turning to `CN(C)C(=O)n1nnc(Cc2ccc(Br)cc2)n1` [Compound 16a, 5-(4-bromobenzyl)-N,N-dimethyl-2H-tetrazole-2-carboxamide], the inhibition at 0.01 µM at hMGL (10 nM inhibitor, AHMMCE substrate, screening assay) was determined as 98%; on ΔTM rFAAH, 92%.

As for `CN(C)C(=O)Oc1ccc(Cc2nnn(C(=O)N(C)C)n2)cc1` [Compound 36a, 4((2-(dimethylcarbamoyl)-2H-tetrazol-5-yl)methyl)phenyl dimethylcarbamate], the inhibition at 0.01 µM on hMGL came out at 92%; on ΔTM rFAAH it was 80%.

Consider `CC(=O)Nc1ccc(Cc2nnn(C(=O)N(C)C)n2)cc1` [Compound 25a], for which the inhibition at 1 µM against hMGL (setting [2]) was determined as 99%; at ΔTM rFAAH, 100%.

`C#CCc1nnnn1C(=O)N(C)C` [Compound 2, N,N-dimethyl-5-prop-2-yn-1-yl-1H-tetrazole-1-carboxamide]: the inhibition at 1 µM at hMGL (setting [2]) was 35%; at ΔTM rFAAH it was 90%. Also, the KA-induced seizure severity entry in assay [1] is “reduce KA-induced seizure severity”.

Values taken from US9271962B2 (NORTHEASTERN UNIVERSITY, priority 2008, dated 2016).
